In ChEMBL document CHEMBL1201862, “PubChem BioAssay data set” (2004):
The source made the active and inactive calls. Cut-off read from the data, not from the text of the source: actives have a measured IC50 and inactives only a lower limit.

Target: T1, Sentrin-specific protease 6 (Homo sapiens, UniProt Q9GZR1)
T1 sequence (Q9GZR1 whole entry): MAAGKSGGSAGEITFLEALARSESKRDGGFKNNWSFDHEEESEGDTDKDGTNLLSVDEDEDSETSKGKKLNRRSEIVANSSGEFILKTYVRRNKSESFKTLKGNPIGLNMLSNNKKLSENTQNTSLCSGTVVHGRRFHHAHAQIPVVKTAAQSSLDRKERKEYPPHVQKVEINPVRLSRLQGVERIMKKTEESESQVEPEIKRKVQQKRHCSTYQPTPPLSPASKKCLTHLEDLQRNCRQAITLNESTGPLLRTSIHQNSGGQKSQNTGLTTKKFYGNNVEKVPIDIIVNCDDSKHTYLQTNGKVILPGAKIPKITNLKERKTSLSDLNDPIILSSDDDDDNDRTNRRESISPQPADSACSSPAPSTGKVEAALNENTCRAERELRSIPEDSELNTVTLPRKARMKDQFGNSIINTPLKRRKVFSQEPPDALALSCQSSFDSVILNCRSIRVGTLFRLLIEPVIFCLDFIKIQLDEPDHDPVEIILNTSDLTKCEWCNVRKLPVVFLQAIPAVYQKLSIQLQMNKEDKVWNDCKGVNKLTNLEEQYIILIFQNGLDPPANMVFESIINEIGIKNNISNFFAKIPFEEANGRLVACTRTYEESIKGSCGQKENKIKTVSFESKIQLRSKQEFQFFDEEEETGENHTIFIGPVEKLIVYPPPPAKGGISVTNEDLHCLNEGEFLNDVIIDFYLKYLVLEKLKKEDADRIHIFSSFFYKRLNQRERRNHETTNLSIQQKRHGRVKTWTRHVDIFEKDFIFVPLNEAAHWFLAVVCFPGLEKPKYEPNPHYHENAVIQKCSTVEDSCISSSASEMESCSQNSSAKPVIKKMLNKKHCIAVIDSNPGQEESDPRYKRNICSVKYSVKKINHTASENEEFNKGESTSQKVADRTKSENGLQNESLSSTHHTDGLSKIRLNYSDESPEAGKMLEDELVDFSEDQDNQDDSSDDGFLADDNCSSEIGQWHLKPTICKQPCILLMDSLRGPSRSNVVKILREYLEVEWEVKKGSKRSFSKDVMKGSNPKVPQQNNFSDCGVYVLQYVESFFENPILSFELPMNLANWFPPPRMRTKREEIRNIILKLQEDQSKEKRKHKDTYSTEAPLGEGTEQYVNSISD
Test: SAR Analysis of small molecule inhibitors of Sentrin-specific protease 6 (SENP6) using a Luminescent assay. [Related pubchem assays (depositor defined):AID2582, AID2599]
Assay type: functional

## COc1cc(C(=O)c2nccc3cc(OC)c(OC)cc23)c([N+](=O)[O-])cc1OC
  IC50: 66.8 µM (active)
